Results: patent publication US11339128B2 (Firmenich Incorporated, priority 2014, dated 2022)
Structures can show the parent of a compound that is named as a salt.

Tests used:
[1] = Sensory paired-comparison sweetness test of sweetener (sucrose or high-fructose corn syrup) with test compound; assay type: in vivo, human; details: test compound 10 ppm or less with 6% sucrose, low sodium buffer pH 7.1; sucrose-alone concentration of equivalent perceived sweetness
Description: Test samples containing either a sweetener (sucrose or high-fructose corn syrup) alone or in combination with a test compound were presented in pairs to a group of panelist who were asked to determine which of the samples was sweeter. Subjects refrained from eating or drinking (except water) for at least 1 hour prior to the test. Subjects rinsed with water several times to clean the mouth. The samples within a paired comparison test were presented in a randomized, counterbalanced order. Panelists had up to a 1 minute delay between taste tests to clear the mouth of any tastes. Binomial probability tables were used to determine the probability of the correct number of responses occurring for each test at alpha-0.05.
Stock solutions of test compounds were prepared at 1000× final concentration with ethanol to ensure dispersion in solution. Test compound samples including sucrose were prepared by diluting the stock solutions in a low sodium buffer (0.952 g of KCl, 5.444 g of Na2HPO4, and 0.952 g of KH2PO4 in deionized ultrafiltered water) at pH 7.1 and containing sucrose. Test compound samples including high fructose corn syrup were prepared by diluting the stock solutions in the low sodium buffer at pH 2.8 (using citric acid to adjust the pH) and containing high fructose corn syrup. Control samples were balanced to 0.1% ethanol final.
In samples containing the test compound, the test compound was present at a concentration of 10 ppm or less and the concentration of sucrose was 6%. This table indicates the sucrose-alone concentration having a perceived sweetness intensity equivalent to the sweetness intensity of the combination of test compound and sucrose. An “A” value indicates an equivalent sucrose concentration greater than 6% and less than 10%. A “B” value indicates an equivalent sucrose concentration of 10% or greater. […]

T1R2/T1R3 taste receptor = biological target: T1, T1R2/T1R3 taste receptor (Homo sapiens, UniProt Q7RTX0+Q8TE23); assay: Receptor-based assay: sweetener EC50 enhancement ratio with and without test compound; assay type: cell-based; details: for Sucrose Enhancement EC50 Ratio: sweetener sucrose; for Sucralose Enhancement EC50 Ratio: sweetener sucralose; for Fructose Enhancement EC50 Ratio: sweetener fructose
T1 sequence (Q8TE23 20-839): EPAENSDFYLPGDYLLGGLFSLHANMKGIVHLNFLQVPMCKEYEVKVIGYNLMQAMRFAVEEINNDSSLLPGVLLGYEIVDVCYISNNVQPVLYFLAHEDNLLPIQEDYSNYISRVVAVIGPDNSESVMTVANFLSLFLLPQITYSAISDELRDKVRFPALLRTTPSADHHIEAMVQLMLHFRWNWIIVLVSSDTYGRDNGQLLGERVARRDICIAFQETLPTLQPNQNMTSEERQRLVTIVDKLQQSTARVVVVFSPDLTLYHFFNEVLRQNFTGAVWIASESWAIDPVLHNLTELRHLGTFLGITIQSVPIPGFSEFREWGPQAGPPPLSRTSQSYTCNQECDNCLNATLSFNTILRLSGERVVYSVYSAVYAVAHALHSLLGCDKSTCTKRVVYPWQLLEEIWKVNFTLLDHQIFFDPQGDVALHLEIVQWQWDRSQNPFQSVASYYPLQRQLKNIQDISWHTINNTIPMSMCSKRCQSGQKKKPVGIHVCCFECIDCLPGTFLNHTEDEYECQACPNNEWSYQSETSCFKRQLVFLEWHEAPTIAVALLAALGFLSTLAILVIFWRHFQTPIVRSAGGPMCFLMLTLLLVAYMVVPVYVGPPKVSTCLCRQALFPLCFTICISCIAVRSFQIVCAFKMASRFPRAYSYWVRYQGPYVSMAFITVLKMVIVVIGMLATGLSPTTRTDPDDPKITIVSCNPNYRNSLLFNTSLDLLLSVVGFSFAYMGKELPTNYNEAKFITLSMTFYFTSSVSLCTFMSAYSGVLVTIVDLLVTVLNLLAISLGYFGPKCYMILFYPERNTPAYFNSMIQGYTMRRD
T1 sequence (Q7RTX0 21-852): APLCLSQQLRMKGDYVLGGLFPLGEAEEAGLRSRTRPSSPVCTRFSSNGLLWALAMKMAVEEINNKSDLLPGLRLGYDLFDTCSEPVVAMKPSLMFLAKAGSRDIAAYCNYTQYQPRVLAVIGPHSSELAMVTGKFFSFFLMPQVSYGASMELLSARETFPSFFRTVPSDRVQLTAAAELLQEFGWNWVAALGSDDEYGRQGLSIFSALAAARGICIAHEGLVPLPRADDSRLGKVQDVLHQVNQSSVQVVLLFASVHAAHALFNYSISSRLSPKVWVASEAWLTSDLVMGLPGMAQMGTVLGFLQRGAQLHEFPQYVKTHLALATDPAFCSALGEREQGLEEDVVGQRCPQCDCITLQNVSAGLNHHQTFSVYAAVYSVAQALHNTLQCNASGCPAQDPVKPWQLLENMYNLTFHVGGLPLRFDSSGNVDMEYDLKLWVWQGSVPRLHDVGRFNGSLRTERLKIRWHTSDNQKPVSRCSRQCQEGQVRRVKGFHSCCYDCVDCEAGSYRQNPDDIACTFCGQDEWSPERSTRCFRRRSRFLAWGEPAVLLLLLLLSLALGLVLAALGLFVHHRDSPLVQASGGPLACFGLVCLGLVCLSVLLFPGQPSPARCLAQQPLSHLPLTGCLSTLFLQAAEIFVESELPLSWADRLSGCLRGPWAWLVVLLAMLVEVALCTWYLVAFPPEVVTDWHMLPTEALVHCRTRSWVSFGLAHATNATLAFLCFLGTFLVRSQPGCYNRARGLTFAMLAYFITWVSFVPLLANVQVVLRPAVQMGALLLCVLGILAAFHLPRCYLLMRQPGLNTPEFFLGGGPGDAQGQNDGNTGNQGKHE
How it was run: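 Sweetener (sucrose, sucralose, fructose) EC50 measured alone and with 1, 3, 10 or 50 μM test compound. Enhancement ratio = EC50 without/with compound; A = >1 to <10, B = 10–20, C = >20.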

Row | Sucralose Enhancement EC50 Ratio (T1R2/T1R3 taste receptor; 3 μM test compound) | Sucralose Enhancement EC50 Ratio (T1R2/T1R3 taste receptor; 10 μM test compound) | Sucrose Enhancement EC50 Ratio (T1R2/T1R3 taste receptor; 10 μM test compound) | Structure (SMILES) | Equivalent Sucrose Conc. [1] | Sucrose Enhancement EC50 Ratio (T1R2/T1R3 taste receptor; 1 μM test compound) | Sucrose Enhancement EC50 Ratio (T1R2/T1R3 taste receptor; 3 μM test compound) | Fructose Enhancement EC50 Ratio (T1R2/T1R3 taste receptor; 10 μM test compound)
1 | – | – | – | CCc1nc2cccc(O[C@H]3CC[C@H](C)CC3)c2c(N)c1C(=O)O [Compound 201] | A (an equivalent sucrose concentration greater than 6% and less than 10%) | A (an enhancement ratio of greater than 1 and less than 10) | B (an enhancement ratio from 10 to 20) | –
2 | B (an enhancement ratio from 10 to 20) | B (an enhancement ratio from 10 to 20) | B (an enhancement ratio from 10 to 20) | Cc1nc2cccc(O[C@H]3CC[C@H](NC(=O)COC4CCC4)CC3)c2c(N)c1C(=O)O [Compound 309] | B (an equivalent sucrose concentration of 10% or greater) | B (an enhancement ratio from 10 to 20) | A (an enhancement ratio of greater than 1 and less than 10) | A (an enhancement ratio of greater than 1 and less than 10)
3 | C (an enhancement ratio greater than 20) | C (an enhancement ratio greater than 20) | C (an enhancement ratio greater than 20) | Cc1nc2cccc(O[C@H]3CC[C@H](Nc4ncccn4)CC3)c2c(N)c1C(=O)O [Compound 700, 4-Amino-2-methyl-5-((trans-4-(pyrimidin-2-ylamino)cyclohexyl)oxy) quinolone-3-carboxylic acid] | B (an equivalent sucrose concentration of 10% or greater) | A (an enhancement ratio of greater than 1 and less than 10) | C (an enhancement ratio greater than 20) | –
4 | B (an enhancement ratio from 10 to 20) | – | – | Cc1nc2cccc(O[C@H]3CC[C@H](NC(=O)COCC(C)C)CC3)c2c(N)c1C(=O)O [Compound 307] | B (an equivalent sucrose concentration of 10% or greater) | A (an enhancement ratio of greater than 1 and less than 10) | C (an enhancement ratio greater than 20) | –
5 | C (an enhancement ratio greater than 20) | C (an enhancement ratio greater than 20) | B (an enhancement ratio from 10 to 20) | Cc1nc2cccc(O[C@H]3CC[C@H](Nc4ccccn4)CC3)c2c(N)c1C(=O)O [Compound 701, 4-Amino-2-methyl-5-((trans-4-(pyridin-2-ylamino)cyclohexyl)oxy) quinoline-3-carboxylic acid] | – | A (an enhancement ratio of greater than 1 and less than 10) | B (an enhancement ratio from 10 to 20) | –
6 | – | – | – | Cc1nc2cccc(O[C@H]3CC[C@H](NC(=O)COCC4CCCC4)CC3)c2c(N)c1C(=O)O [Compound 338] | – | A (an enhancement ratio of greater than 1 and less than 10) | – | –
7 | B (an enhancement ratio from 10 to 20) | B (an enhancement ratio from 10 to 20) | B (an enhancement ratio from 10 to 20) | COc1cnc(N[C@H]2CC[C@H](Oc3cccc4nc(C)c(C(=O)O)c(N)c34)CC2)nc1 [Compound 703] | – | A (an enhancement ratio of greater than 1 and less than 10) | A (an enhancement ratio of greater than 1 and less than 10) | A (an enhancement ratio of greater than 1 and less than 10)

Row | Structure (SMILES) | Sucralose Enhancement EC50 Ratio (T1R2/T1R3 taste receptor; 3 μM test compound) | Sucralose Enhancement EC50 Ratio (T1R2/T1R3 taste receptor; 10 μM test compound) | Sucrose Enhancement EC50 Ratio (T1R2/T1R3 taste receptor; 10 μM test compound) | Equivalent Sucrose Conc. [1] | Sucrose Enhancement EC50 Ratio (T1R2/T1R3 taste receptor; 1 μM test compound) | Sucrose Enhancement EC50 Ratio (T1R2/T1R3 taste receptor; 3 μM test compound) | Fructose Enhancement EC50 Ratio (T1R2/T1R3 taste receptor; 10 μM test compound)
8 | Cc1nc2cccc(O[C@H]3CC[C@H](NC(=O)COC4CCCCC4)CC3)c2c(N)c1C(=O)O [Compound 311] | A (an enhancement ratio of greater than 1 and less than 10) | – | – | A (an equivalent sucrose concentration greater than 6% and less than 10%) | B (an enhancement ratio from 10 to 20) | A (an enhancement ratio of greater than 1 and less than 10) | –
9 | CCCc1nc2cccc(OC3CCC(C)(C)CC3)c2c(N)c1C(=O)O [Compound 208] | – | – | A (an enhancement ratio of greater than 1 and less than 10) | – | A (an enhancement ratio of greater than 1 and less than 10) | A (an enhancement ratio of greater than 1 and less than 10) | –
10 | Cc1nc2cccc(O[C@H]3CC[C@H](NC(=O)COCCC(C)C)CC3)c2c(N)c1C(=O)O [Compound 340] | A (an enhancement ratio of greater than 1 and less than 10) | – | – | – | B (an enhancement ratio from 10 to 20) | B (an enhancement ratio from 10 to 20) | –
11 | Cc1nc2cccc(O[C@H]3CC[C@H](NC(=O)CN)CC3)c2c(N)c1C(=O)O [Compound 401] | – | A (an enhancement ratio of greater than 1 and less than 10) | A (an enhancement ratio of greater than 1 and less than 10) | – | A (an enhancement ratio of greater than 1 and less than 10) | A (an enhancement ratio of greater than 1 and less than 10) | A (an enhancement ratio of greater than 1 and less than 10)
12 | Cc1cc(C)nc(N[C@H]2CC[C@H](Oc3cccc4nc(C)c(C(=O)O)c(N)c34)CC2)n1 [Compound 702, 4-Amino-5-((trans-4-((4,6-dimethylpyrimidin-2-yl)amino)cyclohexyl)oxy)-2-methylquinoline-3-carboxylic (HCl)] | A (an enhancement ratio of greater than 1 and less than 10) | B (an enhancement ratio from 10 to 20) | A (an enhancement ratio of greater than 1 and less than 10) | – | A (an enhancement ratio of greater than 1 and less than 10) | A (an enhancement ratio of greater than 1 and less than 10) | –
13 | CNCC(=O)N[C@H]1CC[C@H](Oc2cccc3nc(C)c(C(=O)O)c(N)c23)CC1 [Compound 402] | – | A (an enhancement ratio of greater than 1 and less than 10) | B (an enhancement ratio from 10 to 20) | – | A (an enhancement ratio of greater than 1 and less than 10) | A (an enhancement ratio of greater than 1 and less than 10) | A (an enhancement ratio of greater than 1 and less than 10)
